Data published in US10857105B2, “Compounds and compositions for intracellular delivery of therapeutic agents” (ModernaTX, Inc., priority 2017, dated 2020).

Columns and labels:
[1] = Particle size and polydispersity index of nanoparticle compositions (Zetasizer Nano ZS); format: physicochemical
Summary of the method: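 Formulations of ionizable lipid, DSPC, cholesterol and PEG-DMG (50:10:38.5:1.5 mol %) carrying Luc or hEPO mRNA with all uridines as N1-methyl pseudouridine. Dynamic light scattering in 1×PBS gave particle size and polydispersity; zeta potential read in 15 mM PBS.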

[2] = tested on: modified luciferase; assay: Luciferase expression in liver, lung, spleen and femur 6 hours after intravenous administration to mice; format: in vivo; details: 6 hours after intravenous 0.5 mpk, mice
Summary of the method: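 Mice (n=3) got a single 0.5 mpk IV dose of each nanoparticle composition, with MC3 and PBS controls alongside. Organ luminescence flux was read 6 h post-dose.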

[3] = tested on: luciferase (Luc) mRNA; assay: Luciferase expression after intramuscular administration to mice; format: in vivo; details: intramuscular; for Novel lipid/MC3 expression ratio, i.m. Luc: luciferase, 6 hr. time point, relative to MC3 formulation
Text: The numbers 1-7 in this figure correspond to MC3, Compounds 168-170, and 173-175 respectively.
FIGS. 18A and 18B show the results of luciferase expression measured upon intramuscular administration of various nanoparticle compositions to CD-1 mice at 0.01 mpk. FIG. 18A is a bar graph showing total flux at 6 hr after administration. The numbers above each bar indicate the expression ratio relative to MC3. […] Numbers 1-11 in the Figures refer to compositions containing the following: 1: MC3, 2: Compound 143, 3: Compound 49; 4: Compound 113; 5: Compound 61; 6: Compound 72; 7: Compound 75; 8: Compound 71; 9: Compound 128; 10: Compound 156; 11: Compound 157.
The numbers 1-9 in this figure correspond to MC3, and Compounds 178, 181, 182, 218, 198, 200, 233, and 239, respectively.
The total flux (measured by area under the curve, AUC) induced by administration of a formulation including a given lipid relative to that induced by administration of a formulation including MC3 was also measured for several lipids.
Sample formulations including modified luciferase (Luc) mRNA prepared and administered intramuscularly and the resulting expression and immunogenicity were evaluated simultaneously. Formulations including compounds according to Formula (I), (IA), (IB), (II), (IIa), (IIb), (IIc), (IId), (IIe), (IIf), (IIg), or (III) were prepared and administered at dose of and 0.01 mpk.

[4] = tested on: luciferase (Luc) mRNA; assay: Luciferase expression (whole body bioluminescence) after intravenous administration to mice; format: in vivo; details: for Novel lipid/MC3 expression ratio, i.v. / Novel lipid/MC3 ratio, i.v.: intravenous, luciferase; for Novel lipid/MC3 expression ratio, i.v.: 6 hr. time point, relative to MC3 formulation; for Novel lipid/MC3 ratio, i.v.: Table 3G, 6 hr. timepoint, relative to MC3
Summary of the method: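 Luc mRNA nanoparticles were given IV at 0.5 mg/kg to groups of six mice, and whole-body bioluminescent flux was imaged 3, 6 and 24 h post-dose. Flux AUC for each lipid formulation was reported as a ratio to the MC3 reference formulation.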

[5] = tested on: IL-6, IP-10; assay: Cytokine induction (IL-6, IP-10) in mice 6 hours after intravenous administration; format: in vivo; design: unit not given here; details: intravenous 0.5 mpk
Summary of the method: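 IL-6 and IP-10 concentrations determined 6 hours after a single intravenous 0.5 mpk dose of lipid nanoparticle formulation in mice, with MC3 and PBS as comparators.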

[6] = Encapsulation efficiency of RNA in nanoparticle compositions (RIBOGREEN assay); format: physicochemical
Summary of the method: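 Lipid nanoparticles (ionisable lipid:DSPC:cholesterol:PEG-DMG 50:10:38.5:1.5 mol %) carrying N1-methylpseudouridine luciferase or hEPO mRNA diluted to about 5 μg/mL in TE, pH 7.5, with or without 2% Triton X-100, 15 min at 37° C. RiboGreen fluorescence (ex ~480, em ~520 nm) blank-subtracted; free RNA = intact/disrupted signal.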

[7] = Lipid clearance: mouse liver tissue level and % dose remaining in liver after intravenous administration; format: in vivo; details: mouse, liver, 0.5 mg/kg
[8] = Table 1A, lipid:DSPC:cholesterol:PEG-DMG 50:10:38.5:1.5 mol %
[9] = Table 1E, compositions for subcutaneous administration
[10] = Table 1D, compositions for subcutaneous administration, # formulated with hEPO mRNA
[11] = Table 1B, formulated with hEPO mRNA

CCCCCCCCCN(CCCO)CCCCCCCC(=O)OC(CCCCCCCC)CCCCCCCC [Compound 7, Heptadecan-9-yl 8-((3-hydroxypropyl)(nonyl)amino)octanoate]
Size [1, 8]: 118.9 nm
Total Flux, Liver [2]: 2.49E+09
Total Flux, Lung [2]: 3.95E+07
Total Flux, Spleen [2]: 4.83E+08
Novel lipid/MC3 expression ratio, i.m. Luc [3]: 1.10
Novel lipid/MC3 expression ratio, i.v. [4]: 0.88
Cytokine induction, IL-6 [5]: 116.35
Cytokine induction, IP-10 [5]: 4959.16
EE [6, 8]: 86.10%

CCCCCCCCCOC(=O)CCCCCCCN(CCO)CCCCCCCCCC(=O)OC(CCCCCCCC)CCCCCCCC [Compound 23, Heptadecan-9-yl 10-((2-hydroxyethyl)(8-(nonyloxy)-8-oxooctyl)amino) decanoate]
Size [1, 8]: 104.5 nm
Size [1, 9]: 70.5 nm
Novel lipid/MC3 expression ratio, i.m. Luc [3]: 0.30
Novel lipid/MC3 expression ratio, i.v. [4]: 0.04
Cytokine induction, IL-6 [5]: 94.00
Cytokine induction, IP-10 [5]: 1015.95
EE [6, 8]: 92.68%

CCCCCCCCCC(=O)OC(C)CCCCCCN(CCO)CCCCCCCC(=O)OC(CCCCCCCC)CCCCCCCC (stereo not drawn) [Compound 98, 8-((8-(Heptadecan-9-yloxy)-8-oxooctyl)(2-hydroxyethyl)amino)octan-2-yl decanoate]
Size [1, 10]: 74.8 nm
concentration at 6 h [7]: 24800 ng/g
concentration at 24 h [7]: 13600 ng/g
Novel lipid/MC3 ratio, i.v. [4]: 3.16
EE [6, 8]: 94.4%

CCCCCCCCCOC(=O)CCCCCCCN(CCCCCCCC(=O)OC(CCCCCCCC)CCCCCCCC)CCCNS(C)(=O)=O [Compound 109, Heptadecan-9-yl 8-((3-(methylsulfonamido)propyl)(8-(nonyloxy)-8-oxooctyl)amino)octanoate]
Size [1, 8]: 81.1 nm
Size [1, 11]: 75 nm
Size [1, 9]: 67.0 nm
Total Flux, Liver [2]: 8.17E+08
Total Flux, Lung [2]: 6.03E+06
Total Flux, Spleen [2]: 4.81E+07
Total flux 6 hours after intramuscular administration, 0.01 mpk Dose ([3]; Luc mRNA, 0.01 mpk, 6 hours): 1.18E+08 p/s
Novel lipid/MC3 expression ratio, i.v. [4]: 0.35
EE [6, 11]: 98.29%

CCCCCCCCCOC(=O)CCCCCCCN(CCCCCCCC(=O)OC(CCCCCCCC)CCCCCCCC)C(C)CO (stereo not drawn) [Compound 157, Heptadecan-9-yl 8-((1-hydroxypropan-2-yl)(8-(nonyloxy)-8-oxooctyl)amino)octanoate]
Size [1, 8]: 61 nm
Total Flux, Liver [2]: 2.27E+09
Total Flux, Lung [2]: 6.70E+06
Total Flux, Spleen [2]: 5.15E+07
Novel lipid/MC3 expression ratio, i.m. Luc [3]: 0.79
AUC ([4]; intravenous administration (Table 3D)): 2.481E+011 p/s*h
EE [6, 8]: 96.04%

CCCCCCCCCOC(=O)CCCCCCCN(CCO)CCCCCCCC(=O)OC(CCC1CC1CCCC)CCC1CC1CCCC (stereo not drawn) [Compound 160, 1,5-Bis(2-butylcyclopropyl)pentan-3-yl 8-((2-hydroxyethyl)(8-(nonyloxy)-8-oxooctyl)amino)octanoate]
Size [1, 8]: 89.0 nm
concentration at 6 h [7]: 51.5 ng/g
concentration at 24 h [7]: 0 ng/g
EE [6, 8]: 94.0%

CCCCCCCCC(CCCCCCCC)OC(=O)CCCCCCCN(CCO)C(C)CCCCCCCCOC(=O)CCCCCCC (stereo not drawn) [Compound 161, Heptadecan-9-yl 8-((2-hydroxyethyl)(10-(octanoyloxy)decan-2-yl)amino)octanoate]
Size [1, 8]: 67.6 nm
concentration at 6 h [7]: 187 ng/g
concentration at 24 h [7]: 0 ng/g
EE [6, 8]: 94.3%

CCCCCCCCC(CCCCCCCC)C(=O)OCCCCCCCN(CCO)C(C)CCCCCCCCOC(=O)CCCCCCC (stereo not drawn) [Compound 162, 7-((2-Hydroxyethyl)(10-(octanoyloxy)decan-2-yl)amino)heptyl 2-octyldecanoate]
Size [1, 8]: 72.7 nm
concentration at 6 h [7]: 261 ng/g
concentration at 24 h [7]: 0 ng/g
EE [6, 8]: 94.1%

CCCCCCCCCOC(=O)C(C)CCCCCCN(CCO)CCCCCCCOC(=O)C(CCCCCCCC)CCCCCCCC (stereo not drawn) [Compound 163, 7-((2-Hydroxyethyl)(7-methyl-8-(nonyloxy)-8-oxooctyl)amino)heptyl 2-octyldecanoate]
Size [1, 8]: 88.3 nm
Size [1, 10]: 78.0 nm
concentration at 6 h [7]: 32100 ng/g
concentration at 24 h [7]: 17900 ng/g
Novel lipid/MC3 ratio, i.v. [4]: 3.45
EE [6, 8]: 93.2%

CCCCCCCCCC(C)(O)CCCCCCCCN(CCO)CCCCCCCC(=O)OC(CCCCCCCC)CCCCCCCC (stereo not drawn) [Compound 171, Heptadecan-9-yl 8-((9-hydroxy-9-methyloctadecyl)(2-hydroxyethyl)amino)octanoate]
Size [1, 8]: 100.5 nm
concentration at 6 h [7]: 47000 ng/g
concentration at 24 h [7]: 32800 ng/g
EE [6, 8]: 85.0%

CCCCCCCCC(CCCCCCCC)OC(=O)CCCCCCCN(CCO)CCCCCCCC(=O)O[C@H](C)CCCCCCCC [Compound 172, (R)-Decan-2-yl 8-((8-(heptadecan-9-yloxy)-8-oxooctyl)(2-hydroxyethyl)amino)octanoate]
Size [1, 8]: 77.3 nm
concentration at 6 h [7]: 16000 ng/g
concentration at 24 h [7]: 2990 ng/g
EE [6, 8]: 95.4%

CCCCCCCCCOC(=O)CCCCCCCN(CCO)CCCCCCCC(=O)OC(COCCCCCC)COCCCCCC [Compound 183, 1,3-Bis(hexyloxy)propan-2-yl 8-((2-hydroxyethyl)(8-(nonyloxy)-8-oxooctyl)amino)octanoate]
Size [1, 8]: 245.3 nm
concentration at 6 h [7]: 69.9 ng/g
concentration at 24 h [7]: 0 ng/g
EE [6, 8]: 32.3%

CCCCCCCCC(CCCCCCCC)OC(=O)CCCCCCCN(CCO)CCCCCCCC(=O)OCC(C)CCCCCCC (stereo not drawn) [Compound 184, Heptadecan-9-yl 8-((2-hydroxyethyl)(8-((2-methylnonyl)oxy)-8-oxooctyl)amino)octanoate]
Size [1, 8]: 77.2 nm
Size [1, 11]: 85.8 nm
concentration at 6 h [7]: 260 ng/g
concentration at 24 h [7]: 0 ng/g
EE [6, 8]: 94.2%
EE [6, 11]: 96.5%

CCCCCCCCCCCOC(=O)CCCCCN(CCO)CCCCCC(=O)OC(CCCCCCCCCC)CCCCCCCCCC [Compound 185, Henicosan-11-yl 6-((2-hydroxyethyl)(6-oxo-6-(undecyloxy)hexyl)amino)hexanoate]
Size [1, 8]: 69.6 nm
concentration at 6 h [7]: 31200 ng/g
concentration at 24 h [7]: 27000 ng/g
EE [6, 8]: 98.3%

CCCCCCCOC(=O)CCCCCCCCCN(CCO)CCCCCCCCCC(=O)OC(CCCCCC)CCCCCC [Compound 186, Heptyl 10-((2-hydroxyethyl)(10-oxo-10-(tridecan-7-yloxy)decyl)amino)decanoate]
Size [1, 8]: 92.2 nm
concentration at 6 h [7]: 42.8 ng/g
concentration at 24 h [7]: 0 ng/g
EE [6, 8]: 87.2%
